Experimental data published in US11396548B2, “EGFR targeted therapy of neurological disorders and pain” (Sykehuset Sørlandet HF, priority 2012, dated 2022).
“Also recorded” adds a separate entry of the source.

Tests used:
Format in all cases: in vivo, human
[1] = Case reports: performance status, function, quality of life and accompanying symptoms; details: Case 7, CIPN; after six to eight weeks of treatment
[2] = system: patients with neuropathic pain; experiment: Case reports: relief of neuropathic pain by EGFR inhibitors (0-10 NRS / Brief Pain Inventory); details: for Phantom-limb pain response: Case 5, panitumumab then erlotinib; for NP relief (summary of the cases): conditions where proximal and/or distal parts of peripheral nerves were affected
Protocol: The term “in vivo” refers to the natural environment (e.g., an animal or a cell) and to processes or reaction that occur within a natural environment. […] Pain interference is assessed using the Brief Pain Inventory (BPI). BPI is used to evaluate pain interference with the following: (a) general activity, (b) mood, (c) walking ability, (d) normal work, (e) relations with other people, (f) sleep, and (g) enjoyment of life. Total score for pain interference is calculated as: (Mean score of non-missing questions)×(7/number of non-missing questions). If four or more questions are missing, the pain interference total score is set to missing.
In some cases, the patients were asked to complete a BPI short form daily, just before and during the EGFR inhibition, in order to document their neuropathic pain and thus, help us to judge their responses and guide treatment decisions.

[3] = Case reports: concomitant analgesic / opioid requirement during EGFR inhibition
[4] = Case reports: side effects of EGFR inhibitors
[5] = Case 2, CRPS1, after gefitinib discontinuation, 10/10 before treatment
[6] = Case 2, yrs, complex regional pain syndrome type 1 of the right hand, sequence cetuximab, panitumumab, cetuximab, gefitinib, erlotinib
[7] = Case 14, panitumumab then erlotinib, four weeks

panitumumab
Sensibility [1]: beginning to regain sensibility in their fingers
Pain score 48 hours after panitumumab infusion [2, 5]: 3 /10
Pain score the next day after panitumumab infusion [2, 5]: 5 /10
Neuropathic pain response [2, 6]: recurrence of severe pain on the very same evening as the panitumumab infusion; also recorded: completely gone again on the third day; also recorded: dramatic increase in pain just hours after infusion; also recorded: dramatic pain relief within hours
Phantom-limb pain response [2]: again effectively alleviated within one day after the second infusion
Time to complete relief after first infusion ([2]; Case 6, panitumumab): ≤ 24 h
Pain reduction ([2]; Case 7, CIPN, after four to six weeks (2-3 doses) of panitumumab): 60-70%
Maximum pain intensity ([2]; Case 7, CIPN, two weeks after first panitumumab, only lasted a few seconds): ten out of ten
Duration of painful bursts ([2]; Case 7, CIPN, two weeks after first panitumumab, several minutes before): five to ten seconds
Herpes Zoster related symptoms ([2]; Case 8, herpetic neuralgia Th5, Day 20, panitumumab infusion, bursts 10/10 on days 16-20): pain had completely resolved.
Herpes Zoster related symptoms: intensity, frequency and duration of painful bursts ([2]; Case 8, Day 34): improve (since day 21).
Time to complete pain relief, into the infusion ([2]; Case 8, panitumumab infusion on day 20): approximately 10 minutes
Pain level at recurrence ([2]; Case 10, 15 days after the initial panitumumab infusion): 9 out of 10
Pain intensity during the following weeks ([2]; Case 10, after first panitumumab 6 mg/kg): 2-3 NRS
Neuropathic pain response ([2]; Case 11, two days after panitumumab infusion and on continued treatment every 2 weeks): completely gone; also recorded: NP has not recurred
Reported pain reduction ([2]; Case 12, after two panitumumab infusions): 75%
Duration of analgesic effect ([2]; Case 12, first panitumumab infusion): lasted only one week
Worst pain level after second infusion ([2]; Case 12, second panitumumab infusion after two weeks, pregabalin reduced from 375 mg to 225 mg): around three
Peak NP in occasional episodes ([2]; Case 12, three months after initial EGFR-I administration): 3
Average NP ([2]; Case 12, three months after initial EGFR-I administration, treatment on hold): 2
Reduction in pain intensity ([2]; Case 13, yrs, CIPN (oxaliplatin), two days after 6 mg/kg panitumumab i.v.): 20-30%
Distribution of pain ([2]; Case 13, two days after panitumumab, pain only located distally in feet): the pain in the legs had completely disappeared
Pain further reduced by, of baseline levels ([2]; Case 13, two weeks after the panitumumab infusion): 30-40%
Worst pain in the first two weeks after the infusion ([2]; Case 14, panitumumab, amitryptiline reduced from 40 mg to 20 mg, exacerbations 10 out of 10 before): 6-7 out of 10
Time to pain recurrence after panitumumab ([2]; case 3): roughly 20 days
NP relief (summary of the cases) [2]: led to complete NP relief
Analgesic requirement ([3]; Case 5): required less breakthrough pain medication
Analgesic requirement ([3]; Case 6, during panitumumab treatment): no longer required analgesics
Opiate requirement ([3]; Case 11, two days after panitumumab, 100 mg depot morphine per 24 hours before): no longer required opiates
Side effects ([4]; Case 11, panitumumab every 2 weeks): transient acne; also recorded: has otherwise not experienced any side effects
Side effect ([4]; Case 12, panitumumab): skin rash grade 2-3
Side effects [4, 7]: has not experienced any side effects to date

C#Cc1cccc(Nc2ncnc3cc(OCCOC)c(OCCOC)cc23)c1 [erlotinib]
Neuropathic pain response [2, 6]: pain-free upon conversion from panitumumab to erlotinib; also recorded: has not recurred since; also recorded: continues to be completely resolved
Phantom-limb pain response [2]: reported phantom-limb pain improvement
Least degree of pain ([2]; Case 9, 10 days on erlotinib 150 mg tablets): 0 /10
Onset of effect ([2]; Case 9, oral erlotinib 150 mg): four to five days
Pain relief ([2]; Case 13, 150 mg oral erlotinib after panitumumab, over the following three weeks): up to 70%
Pain reduction ([2]; Case 13, four weeks after starting erlotinib, week with slightly worsening pain, uses omeprazole): 60%
Average pain ([2]; Case 14, four weeks after start of EGFR-I (panitumumab), one week after starting erlotinib, around 5 before): 4 out of 10
Maximum pain ([2]; Case 14, four weeks after start of EGFR-I, one week after starting erlotinib, 10 before): 6 0-10 pain scale
NP relief (summary of the cases) [2]: led to complete NP relief
Neuropathic pain response (BPI scores, FIG. 7 lower panel) ([2]; previously EGFR-I naive patient (case 9)): responded to upfront treatment
Analgesic requirement ([3]; Case 5): opioid requirement diminished
Side effect ([4]; Case 9, erlotinib): dry skin grade II which was transient
Side effects [4, 7]: has not experienced any side effects to date
